{"source": "patent US20240108740A1", "about": "“THERAPEUTIC COMPOSITIONS INCLUDING SPN10 AND USES THEREOF” (Stealth BioTherapeutics Inc., priority 2022, published 2024)", "key": {"[1]": {"experiment": "Example 16: H2O2 scavenging, luminol-induced chemiluminescence", "format": "biochemical", "conditions": "H2O2 4.4 nmol", "method": "The effect of peptide conjugates, aromatic-cationic peptides, or SPN10(s) (with or without aromatic-cationic peptides) on H2O2 will be measured by luminol-induced chemiluminescence. Luminol (25 μM) and horseradish peroxidase (0.7 IU) will be added to a solution of H2O2 (4.4 nmol) followed by peptide conjugates; aromatic-cationic peptides; or SPN10(s) alone or in combination with aromatic-cationic peptides. Chemiluminescence will be monitored with a Chronolog Model 560 aggregometer (Havertown, PA) for 20 minutes at 37° C."}, "[2]": {"test_system": "isolated mouse liver mitochondria", "experiment": "Example 19: H2O2 production by isolated mitochondria (luminol chemiluminescence)", "conditions": "AUC over 20 min", "method": "Livers will be harvested from mice, homogenized in ice-cold buffer, and centrifuged at 13800×g for 10 min. The pellet will be washed once, re-suspended in 0.3 mL of wash buffer, and placed on ice until use. H2O2 will be measured using luminol chemiluminescence as described previously (Li, et al., Biochim. Biophys. Acta 1428:1-12 (1999). 0.1 mg mitochondrial protein will be added to 0.5 mL potassium phosphate buffer (100 mM, pH 8.0) in the presence of vehicle, peptide conjugates, SPN10(s) alone or in combination with aromatic-cationic peptides, or aromatic-cationic peptides. […] luminol and 0.7 IU horseradish peroxidase will be added, and chemiluminescence will be monitored with a Chronolog Model 560 aggregometer (Havertown, PA) for 20 minutes at 37° C. The amount of H2O2 produced will be quantified as the area under the curve (AUC) over 20 min, and all data will be normalized to AUC produced by mitochondria alone."}, "N2A cells": {"test_system": "N2A cells", "experiment": "Example 24: lipid peroxidation (4-HNE Michael adducts)", "format": "cell-based", "conditions": "t-BHP 1 mM, 3 hours", "method": "Lipid peroxidation will be evaluated by measuring 4-HNE Michael adducts. 4-HNE is one of the major products of the peroxidation of membrane polyunsaturated fatty acids. N2A cells will be seeded on a glass dish 1 day before t-BHP treatment (1 mM, 3 hours, 37° C., 5% CO2) alone or in the presence of peptide conjugates (10^−8 to 10^−10 M), aromatic-cationic peptides (an equivalent molar dose of aromatic-cationic peptide based on the concentration of the aromatic-cationic peptide administered in the peptide conjugate treatment group); SPN10(s) (an equivalent molar dose of SPN10 based on the concentration of SPN10 administered in the peptide conjugate treatment group); or SPN10(s) in combination with aromatic-cationic peptides (e.g., an equivalent molar dose of SPN10 based on the concentration of SPN10 administered in the peptide conjugate treatment group and an equivalent molar dose of aromatic-cationic peptide based on the concentration of aromatic-cationic peptide administered in the peptide conjugate treatment group). Cells will be washed twice with PBS, fixed 30 minutes with 4% paraformaldehyde in PBS at RT, and washed 3 additional times with PBS. […] Cells will be mounted in Vectashield and imaged using a Zeiss fluorescence microscope using an excitation wavelength of 460±20 nm and a longpass filter of 505 nm for emission."}, "Sprague-Dawley rats": {"test_system": "Sprague-Dawley rats", "experiment": "Example 42: CCl4-induced chronic nephrotoxicity", "format": "in vivo, rat", "source_text": "[…]\nRenal Histology: Kidneys will be fixed in 10% neutral-buffered formalin and embedded in paraffin wax for sectioning. Three-micron sections will be stained with hematoxylin-eosin (H&E) and analyzed by light microscopy by a certified pathologist."}, "murine burn injury model": {"test_system": "murine burn injury model", "experiment": "Example 48: skeletal muscle redox state after burn injury (nitroxide EPR)", "format": "in vivo, mouse", "conditions": "6-hour time point; i.p. 30 minutes before and immediately after burn", "method": "The redox state of the gastrocnemius muscle immediately below a local cutaneous burn (90° C. for 3 sec) will be evaluated by nitroxide EPR. It is anticipated that the redox state in the muscle will be compromised by burn injury, with the most dramatic effect at 6 hours post-burn.\nPeptide conjugates (3 mg/kg), aromatic-cationic peptides (an equivalent molar dose of aromatic-cationic peptide based on the concentration of the aromatic-cationic peptide administered in the peptide conjugate treatment group), SPN10(s) (an equivalent molar dose of SPN10 based on the concentration of SPN10 administered in the peptide conjugate treatment group) or SPN10(s) in combination with aromatic-cationic peptides (e.g., an equivalent molar dose of SPN10 based on the concentration of SPN10 administered in the peptide conjugate treatment group and an equivalent molar dose of aromatic-cationic peptide based on the concentration of aromatic-cationic peptide administered in the peptide conjugate treatment group) will be administered i.p. 30 minutes before burn, and immediately after burn."}}, "note": "Residues, ends and D or L forms follow the SMILES beside them.", "data": [{"smiles": "N=C(N)NCCC[C@H](NC(=O)[C@@H](N)Cc1c[nH]c2ccccc12)C(=O)N[C@@H](Cc1c[nH]c2ccccc12)C(=O)N[C@@H](CCCCN)C(N)=O", "note": "[SPN10, H-L-Trp-L-Arg-L-Trp-L-Lys-NH2] (H-WRWK-NH2)", "values": [{"measurement": "luminol response (H2O2 scavenging)", "setting": "[1]", "value": "dose-dependently inhibit the luminol response"}, {"measurement": "amount of H2O2 production", "setting": "[2]", "value": "significantly reduced"}, {"measurement": "lipid peroxidation in cells treated with t-BHP", "setting": "N2A cells", "value": "inhibit lipid peroxidation"}, {"measurement": "histopathological changes (H&E) compared to untreated control animals of Group (1)", "setting": "Sprague-Dawley rats; rat, in vivo", "value": "no significant histopathological changes"}, {"measurement": "protection of renal tubules from CCl4 nephrotoxicity", "setting": "Sprague-Dawley rats; s.c. 5 days per week, 7 weeks", "value": "protect renal tubules from CCl4 nephrotoxicity"}, {"measurement": "rate of nitroxide reduction in muscle beneath the burn", "setting": "murine burn injury model", "value": "significantly increase the rate of nitroxide reduction"}]}]}
